Values of other authors, collected in US11078226B2, “Fluorogenic glycosidase substrate and associated detection method” (ECOLE NORMALE SUPERIEURE DE LYON, priority 2016, dated 2021).

Conditions: cited from earlier work

Q: With `O=c1[nH]c(-c2cc(Cl)ccc2O)nc2ccc(Cl)cc12` [dichloro-HPQ, 6-chloro-2-(5-chloro-2-hydroxyphenyl)-4(3H)-quinazolinone] as the compound, how does the “solubility in aqueous/physiological media” value read?
A: completely insoluble
